These results are taken from US8748461B2, “Metalloenzyme inhibitor compounds” (Viamet Pharmaceuticals, Inc., priority 2011, dated 2014).

By IC50 is commonly meant the concentration that inhibits the measured activity by half. A higher IC50 goes with weaker potency in that assay. Usually MIC stands for the lowest concentration found to suppress growth.

The target of one assay is T1, CYP2C9 (Homo sapiens, UniProt P11712).
T1 construct: from tissue; host or cells: pooled human liver microsomes
The assay can be described thus: Inhibition of liver cytochrome P450 enzymes, isozyme 2C9. Type of assay: in vitro ADME. The following applies: pooled human liver microsomes. On the procedure: (§1) B. […] Solutions of each test compound were separately prepared at concentrations of 20000, 6000, 2000, 600, 200, and 60 μM by serial dilution with DMSO:acetonitrile (MeCN) (50:50 v/v). The individual test compound solutions were then diluted 20-fold with DMSO:MeCN:deionized water (5:5:180 v/v/v) to concentrations of 1000, 300, 100, 30, 10, and 3 μM. […] The mixed inhibitor solutions were then diluted 20-fold with DMSO:MeCN:deionized water (5:5:180 v/v/v) to concentrations of 300, 100, 30, 10, 3, 1, 0.3, and 0.1 μM. The percent of organic solvent attributable to the test compound or inhibitor mixture in the final reaction mixture was 2% v/v. Pooled human liver microsome suspension (20 mg/mL) was diluted with phosphate buffer to obtain a 5 mg/mL suspension. A solution of NADPH was prepared in phosphate buffer at a concentration of 5 mM. Separate stock solutions of each substrate were prepared in DMSO:MeCN (50:50 v/v), mixed, and diluted in phosphate buffer to obtain a single solution containing each substrate at five times its experimentally determined Km concentration. […] A portion of the supernatant was analyzed by gradient reverse-phase HPLC with detection by electrospray ionization triple quadrupole mass spectrometry in the positive ion mode. Data was fitted to sigmoid dose-response curves and the inhibitory potency of each test compound was determined as its IC50 value.
(In general: Liver microsomes are vesicles of endoplasmic reticulum, rich in cytochrome P450 enzymes.)

For another assay, the target named is T2, CYP2C19 (Homo sapiens, UniProt P33261).
T2 construct: from tissue; host or cells: pooled human liver microsomes
The assay can be described thus: Inhibition of liver cytochrome P450 enzymes, isozyme 2C19. Type of assay: in vitro ADME. Conditions: pooled human liver microsomes. On the procedure: as §1

The test system of assay [1] is Septoria tritici (ATCC 26517). In words: Minimum Inhibitory Concentration (MIC) vs. Septoria tritici. Type of assay: cell-based. The following applies: Zymoseptoria tritici, ATCC26517, 168 h; 50% reduction in growth of S. tritici; 22° C., seven days; read-out: Septoria Rating (MIC). Put shortly:
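Growth inhibition of S. tritici by CLSI-based filamentous-fungus microdilution, 2-fold series 16 to 0.016 μg/mL in RPMI-1640/MOPS with 2% DMSO. Inoculum approximately 5×10^4 cfu/mL; plates incubated 22° C, seven days, dark, unshaken.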

In the next assay the test system is C. albicans. The assay can be described thus: Minimum Inhibitory Concentration (MIC) (C. albicans), CLSI M27-A2. Type of assay: cell-based. The following applies: Candida albicans; about 50% growth reduction; approximately 48 h at 35±1° C. As to the method:
A. Minimum Inhibitory Concentration (MIC) (C. albicans) Compounds of the present disclosure were assessed for their ability to inhibit the growth of common strains of fungus, C. albicans using a standardized procedure (CLSI M27-A2). Stock solutions of the test compounds and standards were prepared in DMSO at 1,600 μg/mL (C. albicans). Eleven, serial, one-half dilutions of compounds were prepared in 96-well plates in RPMI+MOPS. The assay concentration ranges were 8-0.001 μg/mL (C. albicans). Cell suspensions of C. albicans were prepared and added to each well at concentrations of approximately 3.7×10^3 colony-forming-units per milliliter (cfu/mL). All testing was in duplicate. The inoculated plates were incubated for approximately 48 h at 35±1° C. At the completion of incubation the wells of each plate were evaluated visually for the presence of fungal growth. […] For QC purposes C. krusei isolate ATCC 6258 (4.0×10^3 cfu/mL) was included in the VOR assay.

A further assay addresses T3, CYP3A4 (Homo sapiens, UniProt P08684).
T3 construct: from tissue; host or cells: pooled human liver microsomes
The assay can be described thus: Inhibition of liver cytochrome P450 enzymes, isozyme 3A4. The following applies: pooled human liver microsomes. The assay is classed as in vitro ADME. On the procedure: as §1

Assay [2] concerns Puccinia recondita tritici = Puccinia triticina. In words: Fungicidal activity vs. leaf rust on wheat plants. The following applies: 50 ppm spray on wheat (Yuma), inoculated the following day, evaluated 7-9 days later; read-out: Puccinia Rating (% Disease Control @ 50 ppm). Type of assay: in vivo. A digest of the protocol: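 Wheat seedlings were sprayed to wetness with compound at 50 ppm in 10% acetone/Triton X100 water, at about 1500 L/ha. They were inoculated with P. recondita tritici spores the following day and held overnight at high humidity before greenhouse growth. Disease severity was rated 7-9 days later on a rating scale.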

≈ marks a conversion by molar mass, not a printed value. Bounds are passed on as bounds.

T3 sequence (P08684 whole entry): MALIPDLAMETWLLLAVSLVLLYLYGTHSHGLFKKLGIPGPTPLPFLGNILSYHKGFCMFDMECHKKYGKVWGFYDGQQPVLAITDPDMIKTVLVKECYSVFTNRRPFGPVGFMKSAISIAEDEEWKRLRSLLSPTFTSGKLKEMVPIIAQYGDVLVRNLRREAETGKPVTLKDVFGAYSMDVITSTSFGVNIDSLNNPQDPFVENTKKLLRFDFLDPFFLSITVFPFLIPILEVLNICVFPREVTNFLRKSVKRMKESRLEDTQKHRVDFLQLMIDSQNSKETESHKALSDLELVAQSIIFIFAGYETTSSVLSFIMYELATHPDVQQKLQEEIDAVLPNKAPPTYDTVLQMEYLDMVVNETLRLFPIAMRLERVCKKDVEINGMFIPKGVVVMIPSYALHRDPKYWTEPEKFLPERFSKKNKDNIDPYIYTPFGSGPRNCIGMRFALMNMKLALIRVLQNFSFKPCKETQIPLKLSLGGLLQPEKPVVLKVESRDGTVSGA
T2 sequence (P33261 whole entry): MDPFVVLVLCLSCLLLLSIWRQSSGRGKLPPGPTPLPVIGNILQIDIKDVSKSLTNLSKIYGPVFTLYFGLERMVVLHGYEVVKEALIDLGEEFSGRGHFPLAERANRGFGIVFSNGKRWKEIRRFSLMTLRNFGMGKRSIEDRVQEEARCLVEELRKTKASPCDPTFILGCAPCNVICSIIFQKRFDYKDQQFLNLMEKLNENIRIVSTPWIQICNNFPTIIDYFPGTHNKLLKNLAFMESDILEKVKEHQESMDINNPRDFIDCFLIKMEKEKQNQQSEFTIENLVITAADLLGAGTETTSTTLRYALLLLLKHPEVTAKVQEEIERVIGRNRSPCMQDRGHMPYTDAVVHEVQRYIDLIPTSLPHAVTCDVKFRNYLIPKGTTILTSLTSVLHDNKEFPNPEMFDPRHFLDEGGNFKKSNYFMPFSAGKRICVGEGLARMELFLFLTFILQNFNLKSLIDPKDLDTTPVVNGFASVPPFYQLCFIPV
T1 sequence (P11712 whole entry): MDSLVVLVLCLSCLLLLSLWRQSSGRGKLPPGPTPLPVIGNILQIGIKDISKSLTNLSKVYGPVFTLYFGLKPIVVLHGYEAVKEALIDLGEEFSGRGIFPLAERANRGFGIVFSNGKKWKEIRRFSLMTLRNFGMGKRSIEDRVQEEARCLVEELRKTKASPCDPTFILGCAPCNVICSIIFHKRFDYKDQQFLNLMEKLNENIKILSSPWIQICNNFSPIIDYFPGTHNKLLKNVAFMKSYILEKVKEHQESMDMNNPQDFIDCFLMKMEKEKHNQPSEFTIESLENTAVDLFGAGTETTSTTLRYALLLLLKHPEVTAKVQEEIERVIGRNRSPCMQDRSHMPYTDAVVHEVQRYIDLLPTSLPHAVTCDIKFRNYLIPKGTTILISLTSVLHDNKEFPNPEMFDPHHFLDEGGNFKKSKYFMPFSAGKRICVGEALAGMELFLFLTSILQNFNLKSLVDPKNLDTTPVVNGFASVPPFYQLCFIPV

With `N#Cc1ccc(Oc2ccc(C(F)(F)C(O)(Cn3cnnn3)c3ccc(F)cc3F)nc2)cc1` (centres unmarked) [Compound 5, 4-(6-(2-(2,4-Difluorophenyl)-1,1-difluoro-2-hydroxy-3-(1H-tetrazol-1-yl)propyl)pyridin-3-yloxy)benzonitrile], the figures for the IC50 against CYP2C9, against CYP2C19 and against CYP3A4 were 31 µM, 16 µM and 16 µM, respectively. In addition, the results for the MIC (in assay [1]; against C. albicans) were at most 0.5 µg/mL and 0.031 µg/mL (≈ 0.0659 µM), respectively. Besides, in assay [2], the pest or weed control at 50 ppm is 80 to 100%.

As to `OC(Cn1cnnn1)(c1ccc(F)cc1F)C(F)(F)c1ccc(OCc2cccc(F)c2)cn1` (centres unmarked) [Compound 3, 2-(2,4-Difluorophenyl)-1,1-difluoro-1-(5-(3-fluorobenzyloxy)pyridin-2-yl)-3-(1H-tetrazol-1-yl)propan-2-ol], the figures for the IC50 against CYP2C9, against CYP2C19 and on CYP3A4 were 12 µM, 11 µM and 8.4 µM, respectively. The figures for the MIC (in assay [1]; against C. albicans) were at most 0.5 µg/mL and 0.002 µg/mL (≈ 0.00419 µM), respectively. The pest or weed control at 50 ppm in assay [2] is 80 to 100%.

`OC(Cn1cncn1)(Cn1cncn1)c1ccc(F)cc1F` [Fluconazole, reference compound] registered an MIC in the assay with C. albicans of 0.5 µg/mL (≈ 1.63 µM).

`C[C@@H](c1ncncc1F)[C@](O)(Cn1cncn1)c1ccc(F)cc1F` [Voriconazole, reference compound] showed an MIC against C. albicans of 0.016 µg/mL (≈ 0.0458 µM).

As to `OC(Cn1cnnn1)(c1ccc(F)cc1F)C(F)(F)c1ccc(OCC(F)(F)F)cn1` (centres unmarked) [Compound 12, 2-(2,4-Difluorophenyl)-1,1-difluoro-3-(1H-tetrazol-1-yl)-1-(5-(2,2,2-trifluoroethoxy)pyridin-2-yl)propan-2-ol], the MIC in assay [1] is at most 0.5 µg/mL. Besides, in assay [2], the pest or weed control at 50 ppm is 80 to 100%.

For `OC(Cn1cnnn1)(c1ccc(F)cc1F)C(F)(F)c1ccc(OCc2cccc(F)c2F)cn1` (centres unmarked) [Compound 23, 1-(5-((2,3-Difluorobenzyl)oxy)pyridin-2-yl)-2-(2,4-difluorophenyl)-1,1-difluoro-3-(1H-tetrazol-1-yl)propan-2-ol], in assay [1], the MIC was at most 0.5 µg/mL. In addition, the pest or weed control at 50 ppm in assay [2] fell in the range of 80 to 100%.

With `COc1ccc(Oc2ccc(C(F)(F)C(O)(Cn3cnnn3)c3ccc(F)cc3F)nc2)cc1` (centres unmarked) [Compound 87, 2-(2,4-Difluorophenyl)-1,1-difluoro-1-(5-(4-methoxyphenoxy)pyridin-2-yl)-3-(1H-tetrazol-1-yl)propan-2-ol], the MIC in assay [1] was over 4 µg/mL. Besides, in assay [2], the pest or weed control at 50 ppm lay in the range of 80 to 100%.
